Reference: patent publication US20070219214A1, “Dual NK2/NK3-antagonists, pharmaceutical compositions comprising them, and processes for their preparation” (Solvay pharmaceuticals GmbH, priority 2006, published 2007)
Where two headings read alike, the source gives them in different places.

Columns and labels:
[1] = target: T1, human NK1-receptor (Homo sapiens, UniProt P25103); test: Binding potency of the test substances to NK1-receptors in vitro ([3H]-Substance P displacement); conditions: human NK1-receptor in CHO cell membranes, average of at least three measurements
T1 sequence (P25103 whole entry): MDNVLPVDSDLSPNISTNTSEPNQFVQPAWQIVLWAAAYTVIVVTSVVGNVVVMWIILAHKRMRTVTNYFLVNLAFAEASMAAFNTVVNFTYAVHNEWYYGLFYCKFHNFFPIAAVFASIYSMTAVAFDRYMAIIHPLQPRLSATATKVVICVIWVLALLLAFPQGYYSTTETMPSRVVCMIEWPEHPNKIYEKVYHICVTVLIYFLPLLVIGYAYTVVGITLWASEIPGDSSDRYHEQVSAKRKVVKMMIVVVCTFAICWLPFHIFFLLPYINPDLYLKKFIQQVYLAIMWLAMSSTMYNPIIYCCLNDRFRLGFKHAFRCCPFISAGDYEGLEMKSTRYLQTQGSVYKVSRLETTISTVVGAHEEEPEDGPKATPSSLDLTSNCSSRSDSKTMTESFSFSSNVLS
Description: 1. Determination of the Binding Potency of the Test Substances to NK1-Receptors in Vitro
The affinity of test compounds for NK1-receptors can be determined by measuring the ability of the test compound to displace a radiolabeled ligand from its specific binding site. The tests were performed at Solvay Pharmaceuticals, Weesp, The Netherlands.
Separation of bound radioactivity from free radioactivity was done by filtration through glass fiber filters (Packard GF/B) with several washings with ice-cold buffer solution. Bound radioactivity was measured with a liquid scintillation counter (total binding).
The inhibition constant (Ki) was calculated according to the Cheng-Prusoff equation, and listed as its negative logarithmic value (pKi). The pKi value describes the potency of a test compound to bind to a receptor.

[2] = target: T2, human NK2-receptor (Homo sapiens, UniProt P21452); test: Binding potency of the test substances to NK2-receptors in vitro ([3H]-SR 48968 displacement); parameters: expressed in transfected cells; host or cells: CHO cells (membrane preparation); conditions: human NK2-receptor in CHO cell membranes, [3H]-SR 48968 (saredutant); average of at least three measurements; read-out: pKi, binding potency to NK2-receptors (converted)
T2 sequence (P21452 1-398): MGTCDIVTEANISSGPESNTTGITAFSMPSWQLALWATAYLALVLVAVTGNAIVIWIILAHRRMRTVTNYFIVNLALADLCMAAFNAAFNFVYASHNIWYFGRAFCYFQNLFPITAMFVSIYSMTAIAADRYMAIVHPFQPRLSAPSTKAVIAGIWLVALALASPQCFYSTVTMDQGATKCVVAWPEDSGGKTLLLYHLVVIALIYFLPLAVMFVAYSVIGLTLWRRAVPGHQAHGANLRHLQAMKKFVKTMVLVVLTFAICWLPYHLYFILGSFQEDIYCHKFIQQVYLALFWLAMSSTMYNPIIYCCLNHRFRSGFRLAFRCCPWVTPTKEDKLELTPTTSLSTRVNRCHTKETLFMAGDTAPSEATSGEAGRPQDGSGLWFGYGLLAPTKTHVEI
Excerpt: 2. Determination of the Binding Potency of the Test Substances to NK2-Receptors in Vitro
The affinity of test compounds for NK2-receptors can be determined by measuring the ability of the test compound to displace a radiolabeled ligand from its specific binding site.
(§1) The radiolabel used in this assay is [^3H]-SR 48968 (saredutant). Receptors were obtained from membrane preparations of CHO-cells (Chinese Hamster Ovary cells), in which the human NK2-receptor was stably expressed. Membranes were incubated with [^3H]-saredutant in the absence or presence of test compounds at different concentrations, diluted in a buffer system. Separation of bound radioactivity from free radioactivity was done by filtration through glass fiber filters (Packard GF/B) with several washings with ice-cold buffer solution. Bound radioactivity was measured with a liquid scintillation counter (total binding). Unspecific binding was determined by incubation with an excess (0.1 μmol/l) of unlabeled saredutant. Specific binding is obtained by subtracting the unspecific binding from the total binding.
(§2) Radioactivity of the specific binding was plotted against the concentration of the test compound and IC50 values, i.e. the concentration of test compound by which 50% of the radioligand is displaced, were calculated. The inhibition constant (Ki) was calculated according to the Cheng-Prusoff equation, and listed as its negative logarithmic value (pKi). The pKi value describes the potency of a test compound to bind to a receptor.
(§3) The average result of all measurements is listed above.

[3] = target: T3, human NK3 receptor (Homo sapiens, UniProt P29371); test: Binding potency of the test substances to NK3-receptors in vitro ([3H]-SR 142801 displacement); parameters: expressed in transfected cells; host or cells: CHO cells (membrane preparation); conditions: human NK3-receptor in CHO cell membranes, [3H]-SR 142801 (osanetant); average of at least three measurements; read-out: pKi, binding potency to NK3-receptors (converted)
T3 sequence (P29371 1-465): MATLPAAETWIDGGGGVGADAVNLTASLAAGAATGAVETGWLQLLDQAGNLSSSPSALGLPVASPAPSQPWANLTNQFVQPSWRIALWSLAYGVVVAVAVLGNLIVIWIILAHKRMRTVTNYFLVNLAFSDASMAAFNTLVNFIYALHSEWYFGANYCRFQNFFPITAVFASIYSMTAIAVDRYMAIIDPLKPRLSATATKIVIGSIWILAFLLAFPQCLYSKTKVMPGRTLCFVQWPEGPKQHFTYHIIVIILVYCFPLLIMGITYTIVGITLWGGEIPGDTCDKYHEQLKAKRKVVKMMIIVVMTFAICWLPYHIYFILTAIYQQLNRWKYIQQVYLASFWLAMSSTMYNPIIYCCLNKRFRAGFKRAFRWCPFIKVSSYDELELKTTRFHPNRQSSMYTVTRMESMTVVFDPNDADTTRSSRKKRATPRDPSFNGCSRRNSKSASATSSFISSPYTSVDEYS
Excerpt: 3. Determination of the Binding Potency of the Test Substances to NK3-Receptors in Vitro
The affinity of test compounds for NK3-receptors can be determined by measuring the ability of the test compound to displace a radiolabeled ligand from its specific binding site.
as §1, with “142801 (osanetant).” for “48968 (saredutant).”, “NK3-receptor” for “NK2-receptor”, “[^3H]-osanetant” for “[^3H]-saredutant”, “(1” for “(0.1”, “osanetant.” for “saredutant.”
as §2, with “(pKi)” for “(pKi).”
as §3

[4] = target: T1, human NK1-receptor; test: Functional cellular test, Ca2+ measurements using FLIPR for NK1 activity; format: cell-based; parameters: expressed in transfected cells; host or cells: CHO fibroblast cells
Excerpt: The NK receptor is coupled to Gq.
All steps were done under sterile conditions.

[5] = target: T2, human NK2-receptor; test: Functional cellular test, Ca2+ measurements using FLIPR for NK2 activity;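 also: CHO cells stably expressing the human receptor, loaded with a calcium dye, antagonist inhibition of ligand-evoked intracellular calcium rise read as peak fluorescence change on FLIPR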
[6] = target: T3, human NK3 receptor; test: Functional cellular test, Ca2+ measurements using aequorin for NK3 activity; format: cell-based; parameters: expressed in transfected cells; host or cells: cell line co-expressing mitochondrially targeted apoaequorin (CHO according to b76/b77); conditions: read-out: pA2 data for NK3 (converted)
[7] = read-out: pKi, binding potency to NK1-receptors (converted)
[8] = pKi, binding potency to NK1-receptors
[9] = read-out: pA2 data for NK1 (converted)

Row | SMILES | Ki [1, 7] | Ki [2] | Ki [3] | Kb [5] | Kb [4, 9] | Kb [6] | Ki [1, 8] | Kb [4]
1 | CN(C)C(=O)C1(N(C)C)CCN(CCC(CN(C)C(=O)c2ccccc2)c2ccc(Cl)c(Cl)c2)CC1 (stereo not drawn) [compound 127] | 79.4 nM | 2 nM | – | – | – | – | – | –
2 | CCC(=O)N(C1CCCCC1)C1CCN(CC[C@H](CN(C)C(=O)c2ccccc2)c2ccc(Cl)c(Cl)c2)CC1 [compound 116, N-[(2S)-4-{4-[cyclohexyl(propionyl)amino]piperidin-1-yl}-2-(3,4-dichlorophenyl)butyl]-N-methyl-benzamide] | – | 5.01 nM | – | 1.26 nM | – | – | 79.4 nM | 31.6 nM
3 | CN(C)C(=O)C1(N2CCCCC2)CCN(CCC(CN(C)C(=O)c2cccc(C(F)(F)F)c2)c2ccc(Cl)c(Cl)c2)CC1 (stereo not drawn) [compound 83] | – | 5.01 nM | 3.16 nM | 15.8 nM | – | – | 79.4 nM | –
4 | CN(C)C(=O)C1(N2CCCCC2)CCN(CCC(CN(C)C(=O)C2CCCC2)c2ccc(Cl)c(Cl)c2)CC1 (stereo not drawn) [compound 23] | – | 2 nM | 10 nM | 1.26 nM | 1.26 nM | 12.6 nM | – | –
5 | CN(C)C(=O)C1(N2CCCCC2)CCN(CCC(CN(C)C(=O)c2cc(C(F)(F)F)cc(C(F)(F)F)c2)c2ccc(Cl)c(Cl)c2)CC1 (stereo not drawn) [compound 70] | 63.1 nM | 25.1 nM | 63.1 nM | – | – | – | – | –
6 | CN(C)C(=O)C1(N2CCCCC2)CCN(CCC(CN(C)C(=O)Cc2ccc(C(F)(F)F)c(C(F)(F)F)c2)c2ccc(Cl)c(Cl)c2)CC1 (stereo not drawn) [compound 56] | 63.1 nM | 25.1 nM | 5.01 nM | – | – | – | – | –
7 | CN(C)C(=O)C1(N2CCCC2)CCN(CCC(CN(C)C(=O)c2cc(C#N)cc3ccccc23)c2ccc(Cl)c(Cl)c2)CC1 (stereo not drawn) [compound 98] | 5.01 nM | 5.01 nM | 63.1 nM | 0.501 nM | 1.58 nM | – | – | –
8 | CN(C)C(=O)C1(N2CCCCC2)CCN(CCC(CN(C)C(=O)Cc2ccncc2)c2ccc(Cl)c(Cl)c2)CC1 (stereo not drawn) [compound 51] | – | 79.4 nM | 6.31 nM | 39.8 nM | – | 31.6 nM | – | –
9 | CNC(=O)C1(N2CCCCC2)CCN(CCC(CN(C)C(=O)c2cc(C#N)cc3ccccc23)c2ccc(Cl)c(Cl)c2)CC1 (stereo not drawn) [compound 93] | 7.94 nM | 15.8 nM | – | 3.98 nM | 7.94 nM | – | – | –
10 | CCCCN(C(=O)CC)C1CCN(CC[C@H](CN(C)C(=O)c2ccccc2)c2ccc(Cl)c(Cl)c2)CC1 [compound 108, N-[(2S)-4-{4-[butyl(propionyl)amino]piperidin-1-yl}-2-(3,4-dichlorophenyl)butyl]-N-methylbenzamide] | – | 3.98 nM | – | 1 nM | – | – | 12.6 nM | 31.6 nM
11 | CN(C)C(=O)C1(N2CCCCC2)CCN(CCC(CN(C)C(=O)c2ccccn2)c2ccc(Cl)c(Cl)c2)CC1 (stereo not drawn) [compound 43] | – | 0.251 nM | 5.01 nM | 0.631 nM | – | 31.6 nM | – | –
12 | CN(C)C(=O)C1CCCCN1C1CCN(CCC(CN(C)C(=O)c2ccccc2)c2ccc(Cl)c(Cl)c2)CC1 (stereo not drawn) [compound 97] | – | 2 nM | 79.4 nM | 0.251 nM | – | 79.4 nM | – | –

The next lines start with results.

Row | Ki [1, 7] | Ki [2] | Ki [3] | Kb [5] | Kb [4, 9] | Kb [6] | SMILES | Ki [1, 8] | Kb [4]
13 | 12.6 nM | 50.1 nM | 50.1 nM | – | – | – | CN(CC(CCN1CCC(C(=O)N2CCCCC2)(N2CCCCC2)CC1)c1ccc(Cl)c(Cl)c1)C(=O)c1cc(C#N)cc2ccccc12 (stereo not drawn) [compound 125] | – | –
14 | 79.4 nM | 2.51 nM | 25.1 nM | – | – | – | COc1cccc(C(=O)N(C)CC(CCN2CCC(C(=O)N(C)C)(N3CCCCC3)CC2)c2ccc(Cl)c(Cl)c2)c1 (stereo not drawn) [compound 82] | – | –
15 | 79.4 nM | 5.01 nM | – | – | – | – | CNc1ccccc1C(=O)N(C)CC(CCN1CCC(C(=O)N(C)C)(N2CCCCC2)CC1)c1ccc(Cl)c(Cl)c1 (stereo not drawn) [compound 24] | – | –
16 | – | 0.631 nM | 63.1 nM | 0.251 nM | 50.1 nM | – | CN(C)C(=O)C1(N2CCCC2)CCN(CC[C@H](CN(C)C(=O)c2ccccc2)c2ccc(Cl)c(Cl)c2)CC1 [compound 99, 1-[(3S)-4-[benzoyl(methyl)amino]-3-(3,4-dichlorophenyl)-butyl]-N,N-dimethyl-4-pyrrolidin-1-ylpiperidine-4-carboxamide] | – | –
17 | – | 2 nM | – | 1.26 nM | 31.6 nM | – | CN(C)C(=O)C1(N2CCN(CC[C@H](CN(C)C(=O)c3ccccc3)c3ccc(Cl)c(Cl)c3)CC2)CCCCC1 [compound 96, N-[(2S)-2-(3,4-dichlorophenyl)-4-(4-{1-[(dimethylamino)-carbonyl]cyclohexyl}piperazin-1-yl)butyl]-N-methylbenzamide] | – | –
18 | – | 2 nM | 20 nM | 15.8 nM | 20 nM | 15.8 nM | CN(C[C@@H](CCN1CCC(C(=O)N2CCCCC2)(N2CCCCC2)CC1)c1ccc(Cl)c(Cl)c1)C(=O)c1ccccc1 [compound 104, N-{(2S)-2-(3,4-dichlorophenyl)-4-[4′-(piperidin-1-ylcarbonyl)-1,4′-bipiperidin-1′-yl]butyl}-N-methylbenzamide] | – | –
19 | 79.4 nM | 2 nM | 79.4 nM | – | – | – | CN(C)C(=O)C1(N2CCCCC2)CCN(CCC(CN(C)C(=O)c2cccc(Cl)c2)c2ccc(Cl)c(Cl)c2)CC1 (stereo not drawn) [compound 80] | – | –
20 | 6.31 nM | 10 nM | 39.8 nM | – | – | – | CN(CC(CCN1CCC(C(=O)N2CCCC2)(N2CCCCC2)CC1)c1ccc(Cl)c(Cl)c1)C(=O)c1cc(C#N)cc2ccccc12 (stereo not drawn) [compound 126] | – | –
